From patent US20250179033A1 (priority 2021, published 2025)
Where two headings read alike, the source gives them in different places.

Columns and labels:
CYP3A4 = CYP3A4 (Homo sapiens, UniProt P08684); test: Human CYP inhibition in human liver microsomes; assay type: in vitro ADME
Procedure: (§1) Study samples (containing either control inhibitor or test compound) were added into the tubes, vortexed gently and pre-incubated for 5 min at 37° C. 20 μL of NADPH solution was aliquoted into all tubes, then vortexed to start the reaction and to assure adequate mixture of the NADPH. After mixing, the tubes were incubated for 20 min at 37° C. in a shaking water bath and then quenched in […] formic acid/acetonitrile solution. After quenching, the samples were vortexed vigorously for 1 min and centrifuged at 4,000 rpm for 15 min (4° C.). 100 μL of supernatant was transferred to 0.65 ml tubes for LCMS analysis by the bioanalytical method described earlier. The CYP450 substrates and control inhibitors for each enzyme was as follows: CYP1A2 (phenacetin, naphthoflavone), CYP2C9 (diclofenac, sulfaphenazole), CYP2C19 (omeprazole, tranylcypromine), CYP2D6 (dextromethorphan, quinidine), CYP3A4 (midazolam, ketoconazole).

CYP2D6 = CYP2D6 (Homo sapiens, UniProt P10635); test: Human CYP inhibition in human liver microsomes; assay type: in vitro ADME
Procedure: as §1

[1] = Mouse liver microsome stability; assay type: in vitro ADME
Procedure: Mouse/Human liver microsome stability: A liver microsome solution (197.5 μL, 1.27 mg/ml protein concentration) (Sekisui Xenotech, Kansas City, KS) was aliquoted into 1.1 ml tubes, to which 2.5 μL of positive control and compound stock solutions (100 μM in DMSO) were added. The tubes were vortexed gently, pre-incubated for 5 min at 37° C., then 50 μL of 5 mM NADPH or LM buffer (no NADPH buffer) was added into the tubes. For analysis, an aliquot of 15 μL was removed from each tube at 0, 5, 15, 30 and 60 min (without-NADPH reaction: 0, 30 and 60 min) and quenched with 300 μL of 25 ng/ml propranolol in acetonitrile. Samples were vigorously vortexed for 1 min and then centrifuged at 4,000 rpm for 15 min at 4° C. 100 μL of supernatant from each sample was transferred to 0.65 ml tubes for LCMS analysis. The amount of parent compound was determined on the basis of the peak area ratio (compound area to IS area) for each time point. Clearance rates were calculated by the equation: […]

HIV-1 IIIB (wild-type) = test: HIV inhibition assay in TZM-bl cells, wild-type; assay type: cell-based; conditions: Human immunodeficiency virus 1, IIIB; for IC50: read-out: IC50 (TZM, WT)
Outline: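 TZM-bl cells with 15 μg/mL DEAE-dextran were infected with H9-grown HIV-1 IIIB, wild-type or A17 (Y181C/K103N), in the presence of compound (0.005% or 0.05% DMSO) for 48 h at 37 °C. Luciferase RLU was read after lysis. Toxicity was measured in parallel by CellTiter-Blue fluorescence.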

in vitro = in vitro ADME, human
Procedure: Protein Binding in Plasma: The donor side of dialysis inserts were filled with 200 μL plasma (human and mouse; source BioDuro, San Diego, California, United States of America) containing 5 μM drug and 0.5% of DMSO and the receiver side of the dialysis inserts was filled with 350 μL of PBS buffer (100 mM, pH 7.4). The prepared dialysis apparatus was placed in a shaker (37° C., 100 rpm) for 5 hours. Two tubes with plasma containing 5 μM experimental compound were also prepared for stability test: one tube was placed in the […] for 5 hours and the other tube was placed in shaker ([…], 100 rpm) for 5 hours. Samples were collected from the donor and receiver sides of each dialysis insert. The same volume of blank plasma was added to buffer samples and blank buffer to plasma samples to make sure all sample mixtures contain 50% plasma and 50% buffer. 50 μL of each sample was mixed with 300 μL of acetonitrile containing 25 ng/ml internal standard (propranolol). All samples were vortexed for 1 minute and then centrifuged at 4000 rpm, 4° C. for 15 min. 100 μL of the supernatant was transferred to 0.65 ml tube for LCMS analysis. The amount of compound was determined on the basis of the peak area ratio (compound area to internal standard area) for the two sides, and protein binding is determined using the following equations: % Bound=100×([Area Ratio of Donor]5h*5−[Area Ratio of Receiver]5h)/([Area Ratio of Donor]5h*5). The percentage remaining at 37° C. after 5 hours was calculated on the basis of the amount measured at 0° C. after 5 hours.

[2] = Toxicity assay in TZM-bl cells; assay type: cell-based; conditions: human
Outline: (§2)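 TZM-bl cells (2×10^5/mL, with DEAE-dextran) were exposed to serially diluted compound plus virus at a constant 0.005% or 0.05% DMSO for 48 h at 37 °C. CellTiter-Blue was added at 46 h and incubated 2 h. Viability was read as fluorescence at 560/590 nm after stopping with 1.5% SDS.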

TZM-bl cells = test: Toxicity assay in TZM-bl cells; assay type: cell-based
Outline: as §2

[3] = Table 3, TZM-bl, ± SEM, minimum 6 replicates

Chain of CYP2D6 (P10635 whole entry): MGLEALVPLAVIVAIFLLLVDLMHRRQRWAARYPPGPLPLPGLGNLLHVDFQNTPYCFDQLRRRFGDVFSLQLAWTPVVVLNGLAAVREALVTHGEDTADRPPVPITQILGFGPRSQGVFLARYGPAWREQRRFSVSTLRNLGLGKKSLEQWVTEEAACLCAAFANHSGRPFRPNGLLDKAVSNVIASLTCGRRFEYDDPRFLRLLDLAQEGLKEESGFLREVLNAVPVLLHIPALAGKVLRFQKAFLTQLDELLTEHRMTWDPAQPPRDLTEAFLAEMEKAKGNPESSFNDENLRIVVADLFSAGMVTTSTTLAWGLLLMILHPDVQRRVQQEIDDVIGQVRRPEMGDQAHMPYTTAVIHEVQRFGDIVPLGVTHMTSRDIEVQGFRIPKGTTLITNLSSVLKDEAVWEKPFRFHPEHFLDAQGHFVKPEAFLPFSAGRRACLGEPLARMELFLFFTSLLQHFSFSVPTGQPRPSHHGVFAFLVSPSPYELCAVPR
Chain of CYP3A4 (P08684 whole entry): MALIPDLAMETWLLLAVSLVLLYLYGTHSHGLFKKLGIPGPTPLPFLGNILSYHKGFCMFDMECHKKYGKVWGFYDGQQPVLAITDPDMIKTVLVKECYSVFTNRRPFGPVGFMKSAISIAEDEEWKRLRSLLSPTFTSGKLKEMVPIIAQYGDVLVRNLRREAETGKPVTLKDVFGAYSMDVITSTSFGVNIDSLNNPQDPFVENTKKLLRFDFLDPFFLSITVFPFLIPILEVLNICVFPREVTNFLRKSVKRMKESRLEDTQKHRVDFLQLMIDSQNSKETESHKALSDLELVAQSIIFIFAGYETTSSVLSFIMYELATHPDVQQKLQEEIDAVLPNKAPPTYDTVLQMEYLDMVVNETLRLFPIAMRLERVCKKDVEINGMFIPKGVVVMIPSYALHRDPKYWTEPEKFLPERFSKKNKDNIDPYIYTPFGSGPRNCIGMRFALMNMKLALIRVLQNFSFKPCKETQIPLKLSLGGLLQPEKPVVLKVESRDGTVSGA

Compound	IC50 (CYP3A4)	IC50 (CYP2D6)	Mouse liver microsomes, stability in words [1]	Mouse liver microsomes CLint ([1]; mouse, liver microsomes, 1 μM)	IC50 (HIV-1 IIIB (wild-type); [3])	IC50 (HIV-1 IIIB (wild-type); Table 4, TZM-bl)	Human plasma protein binding (in vitro; 5 μM, dialysis 5 hours)	CC50 at 48 h [2]	Qualitative Cell Toxicity within inhibition range (TZM-bl cells)	IC50 (CYP3A4; human liver microsomes, substrate midazolam, read-out: CYP inhibition IC50, 3A4)	IC50 (CYP2D6; human liver microsomes, substrate dextromethorphan, read-out: CYP inhibition IC50, 2D6)	half-life at 1 μM ([1]; mouse, liver microsomes)	microsomal CLint at 1 μM ([1]; mouse, liver microsomes)	EC50 (HIV-1 IIIB (wild-type); text b494, FIG. 2F, read-out: antiviral activity against wildtype, EC50)	half-life at 5 μM (in vitro; human, plasma)	fraction unbound (in vitro; human, plasma, pH 7.4, 5 μM, dialysis 5 hours, read-out: Human plasma protein binding)	CC50 at 48 h ([2]; Table 4, TZM-bl, read-out: CC50 (TZM))	CC50 at 48 h ([2]; text b494, FIG. 2F, read-out: cytotoxicity CC50)	Qualitative Cell Toxicity within inhibition range (TZM-bl cells; Table 3, TZM-bl)	Quantitative Cell Toxicity (TZM-bl cells; Table 3, TZM-bl)
Nc1nc(Nc2ccc(Cl)cc2)nn1S(=O)(=O)c1ccc2ccccc2c1 [Compound 1, N3-(4-chlorophenyl)-1-(2-naphthylsulfonyl)-1,2,4-triazole-3,5-diamine]	> 50 µM	> 50 µM	protein, stable	10.4 μL/min/mg protein	9.33 ± 2.27 nM	9.33 nM	>99.9%	> 1 µM	None											
N#C/C=C/c1ccc2c(S(=O)(=O)n3nc(Nc4ccc(C#N)c(Cl)c4)nc3N)cccc2c1 [Compound 20, 4-[[5-amino-1-[[6-[2-cyanovinyl]-1-naphthyl]sulfonyl]-1,2,4-triazol-3-yl]amino]-2-chloro-benzonitrile]			stable		0.263 ± 0.05 nM	0.309 nM				31.3 µM	> 50 µM	124 min	11.1 µL/min/mg	0.22 nM	> 373 min	< 0.001	4.95 µM	5.35 µM	None	4.06 µM
